The values below come from patent publication EP2338492A1, “Methods and compositions for the treatment of alzheimer” (Universidad del Pais Vasco, priority 2009, dated 2011).

Assay [1] concerns NMDA receptor. In kind it is cell-based, Sprague-Dawley rat.
Assay [2] concerns AMPA receptors. Briefly: Whole-cell patch-clamp recording of Aβ-induced currents with Mg2+, no glycine, with or without cyclothiazide. The following applies: Aβ 1 µM + CTZ 100 µM; CNQX 30 µM; n=6. In kind it is cell-based, Sprague-Dawley rat. From the text:
(§1) Primary neuron cultures were obtained from the cortical lobes of E18 Sprague-Dawley rat embryos according to previously described procedures (Gottlieb M. et al. 2006. Neurobiol. Dis. 23 374-386.) Cells were resuspended in B27 Neurobasal medium plus 10% FBS (Sigma; St Louis, MO, USA) and then seeded onto poly-1-ornithine-coated glass coverslips at 1x10^5 cells per coverslip (12 mm in diameter) and 48-well plates at 1.5 x 10^5 per well. One day later, the medium was replaced by serum-free-, B27-supplemented Neurobasal medium. The cultures were essentially free of astrocytes and microglia; they were maintained at 37°C and 5% CO2. Cultures were used 8-10 days after plating.
Whole-cell recordings were performed at room temperature using the EPC-7 patch-clamp amplifier (HEKA Elektronik, Lambrecht, Germany). Currents were recorded at a holding membrane potential of -70 mV. Extracellular bath solution with a pH of 7.3 contained the following (in mM): 140 NaCl, 5 KCl, 2.5 CaCl2, 1 MgCl2, 10 HEPES and 10 mM glucose. Patch-clamp pipettes (3-5 MΩ) were filled with internal solution at a pH of 7.3 containing the following (in mM): 140 K-gluconate, 1 CaCl2, 2 MgCl2, 10 HEPES, 10 EGTA, 2 Mg-ATP, 0.2 Na-GTP.
We then measured the effects of antagonists of NMDA or AMPA receptor on [Ca^2+]¡ in neurons exposed to Aβ plus CTZ (5 µM and 100 µM, respectively; Fig 2B).
On the technique in general: The patch-clamp technique gives a direct electrical read-out from membranes.

Assay [3] concerns cultured cortical neurons. Briefly: Ca2+ imaging in the cytosol (fura-2 AM). Conditions: for effect on Aβ-induced increase in [Ca2+]i: Aβ 5 µM, coapplication, NMDA antagonists n=70, voltage-gated Ca2+ channel inhibitors n=66. The assay is classed as cell-based, Sprague-Dawley rat.
From the text: as §1
[Ca^2+]¡ was determined according to the method described previously (G. Grynkiewicz, et al. 1985. J. Biol. Chem. 260:3440-3450). Neurons were loaded with fura-2 AM (5 µM; Molecular Probes, Invitrogen, Barcelona, Spain) in culture medium for 30 min at 37°C. Cells were washed in HBSS containing 20 mM HEPES, pH 7.4, 10 mM glucose, and 2 mM CaCl2 (incubation buffer) for 10 min at room temperature. Experiments were performed in a coverslip chamber continuously perfused with incubation buffer at 4 ml/min. The perfusion chamber was mounted on the stage of a inverted epifluorescence microscope (Zeiss Axiovert 35; Oberkochen, Germany) equipped with a 150 W xenon lamp Polychrome IV (T.I.L.L. Photonics, Martinsried, Germany) and a Plan Neofluar 40 x oil immersion objective (Zeiss). Cells were visualized with a high-resolution digital black/white CCD camera (ORCA C4742-80-12 AG; Hamamatsu Photonics Iberica). […] At the end of the assay, in situ calibration was performed with the successive addition of […] and 2 M Tris/50 mM EGTA, pH 8.5. Data were analyzed with Excel (Microsoft, Seattle, WA, USA) and Prism (GraphPad Software, San Diego, CA, USA) software.

The test system of assay [4] is Cortical neurons. Briefly: Cell viability and toxicity assay (LDH release). The assay is classed as cell-based, Sprague-Dawley rat.
From the text: as §1
Antagonists and inhibitors were added to the cultures 30 min before the Aβ. Twenty four hours after drug application, cellular damage was estimated by measuring the level of lactate dehydrogenase released (LDH; Cytotox 96®, Promega, Madison, WI) from damaged cells into the culture media. Data were normalized to the activity of LDH released from vehicle-treated cells (100%) and calculated as a percentage of the control. Results were expressed as the means ± SEM of at least three independent experiments performed in triplicates.
A general note: LDH leaks from cells whose membrane has failed.

The test system of assay [5] is Cortical neurons. Briefly: Measurement of intracellular reactive oxygen species (CM-H2DCFDA). The assay is classed as cell-based, Sprague-Dawley rat. The following applies: 2 hours.
From the text: as §1
Neurons were exposed to Aβ oligomers alone or with GluR antagonists as described. Cells were loaded with CM-H2DCFDA at 30 µM to assay the ROS levels. Calcein-AM (1 µM; Molecular Probes, Invitrogen, Barcelona, Spain) was used to quantify the number of cells within the reading field. Fluorescence was measured using a Synergy-HT fluorimeter (Bio-Tek Instruments Incl, Beverly, MA, USA; excitation at 485 nm, emission at 527 nm). All experiments (n≥3) were performed at least in quadruplicate and plotted as means ± SEM.

In assay [6] the test system is Cortical neurons. The experiment in a line: Analysis of mitochondrial membrane potential (JC-1). The assay is classed as cell-based, Sprague-Dawley rat. The following applies: Aβ 5 µM, 2 hours, in conjunction with GluR antagonist.
From the text: as §1
Briefly, after drug treatment, cells were loaded with 3 µM JC-1 for 15 min at 37°C and were washed with HBSS without phenol red by two times to eliminate the excess of dye. In the cytosol the monomeric form of this dye fluoresces green (excitation at 485 nm, emission at 527 nm), whereas within the mitochondrial matrix highly concentrated JC-1 forms aggregates that fluoresce red (excitation at 485 nm, emission at 590 nm). Both JC-1 monomers and aggregates were detectable using a Synergy-HT fluorimeter (Bio-Tek Instruments Incl, Beverly, MA, USA) and the changes in mitochondrial potential were calculated as the red/green ratio in each condition. All experiments (n≥3) were performed at least in triplicate and plotted as meant SEM.

For assay [7], the system named is neurons from CA1 in organotypic slices. The experiment in a line: Measurement of Ca2+ in organotypic slices (fluo-4). The assay is classed as cell-based. Conditions: for [Ca2+]i in CA1 neurons of organotypic slices: kainate 1 mM (positive control). From the text:
(§2) Brain was removed and two hemispheres were separated in HBSS. Thalamus and midbrain was removed and each hemisphere sliced with a tissue chopper (McIlwan Tissue Chopper, Campden Instruments Ltd, Lafayette, IN, USA) in order to obtain coronal slices of 400 µm of thickness. Entorhinal cortex, in connection with hippocampus, were isolated under a dissection microscope, 2 slices plated on each Millicell CM culture inserts (Millipore Ibérica, Madrid, Spain) and maintained in Neurobasal medium supplemented with 0.5% B27, 25% horse serum, 25% HBSS and […] gentamycin at 37°C. Experiments were performed at 7-10 days in vitro.
Ca^2+ levels in hippocampus were monitored by fluorescence microscopy using the Ca^2+ indicator fluo-4 (Molecular Probes, Invitrogen, Barcelona, Spain). Slices were incubated with fluo-4-AM (5 µM and 0.01 % of pluronic acid) for 45 min at 37 °C. Experiments were performed in a chamber continuously perfused with incubation buffer. Drugs were perfused by a micromanifold with a quartz/polyimide tube of 200 µm ID, attached to a micromanipulator in order to perfuse the drugs directly to the cells. The perfusion chamber was mounted on the stage of a Leica DMLFSA up-right microscope equipped with a 150 W xenon lamp Polychrome V (T.I.L.L. Photonics, Martinsried, Germany) and a HCX Apo 40 x water immersion objective (Leica). Cells were visualized with a CCD camera (EM CCD 9100; Hamamatsu Photonics Iberica, Barcelona, Spain).

The subject of assay [8] is entorhinal cortex-hippocampus organotypic cultures. Briefly: Cell death in organotypic cultures by propidium iodide uptake. In kind it is cell-based. Conditions: Aβ oligomers 100 nM, 4 days, co-incubation with MK801 10 µM or CNQX 30 µM.
From the text: as §2
Antagonists were added to cultures 30 min before the Aβ. Cell death in organotypic cultures was evaluated by cellular uptake of propidium iodide (PI). Slices were stained by adding 10 µM PI into the culture for 2 h at 37°C and washed with PBS by two times for 10 min. Slices were fixed with 4% PFA in PBS for 40 min at room temperature. Afterwards, the slices were excited with 510―560 nm light and the emitted fluorescence acquired at 610 nm using a rhodamine filter on an inverted fluorescence microscope (Cell Observer Z1, Zeiss). PI fluorescence images were captured with a Plan NeoFluar 2.5 x objective (Zeiss), using an EM CCD camera (Hamamatsu, C9100-13), controlled by Axio Vision program (Zeiss). Images were analyzed with the ImageJ analysis program (NIH, MD, USA) and neuronal cell death was expressed as the percentage of the mean gray value of each treatment vs. control.

The test system of assay [9] is neurons. Briefly: Measurement of mitochondrial Ca2+ (Rhod-2 AM). In kind it is cell-based, Sprague-Dawley rat. The following applies: for effect on Aβ-induced [Ca2+]mit rise: Aβ 5 µM together with NMDA receptor antagonist.
From the text: as §1
Rhod-2 AM (Molecular Probes, Invitrogen, Barcelona, Spain) was used to measure mitochondrial Ca^2+ according to the previous procedure with modifications (G. Hajnóczky, L.D. et al. 1995. Cell 82 415-424) Rhod2-AM has a net positive charge, which facilitates its sequestration into mitochondria due to membrane potential-driven uptake. Cells were loaded with 2 µM rhod2-AM for 6 hours. The residual cytosolic fraction of the dye was eliminated when the cells were kept in culture for an additional 18h after loading, whereas the mitochondrial dye fluorescence was maintained. Fluorescence images of rhod-2 were acquired using 550 nm excitation and 590 nm emission. The fluorescence of rhod-2 was not calibrated in terms of [Ca^2+]mit since it is not a ratiometric dye.

The mark [10] stands for this setting: Aβ 5 µM, in conjunction with GluR antagonist.
The mark [11] stands for this setting: Aβ 5 µM, 24 h, AP5 100 µM, MK801 50 µM, memantine 50 µM, CNQX 30 µM, ZVAD-F 50 µM, DEVD 100 µM, DPQ 30 µM, added 30 min before Aβ.

Where two headings read alike, the source gives them in different places.

“6-Cyano-7-nitroquinoxaline-2,3-dione [CNQX]”: in assay [1], the “Aβ-produced inward current, Aβ + CNQX vs 100 % Aβ alone” value is 98.3 ± 6.8%. Also, the “effect on current activated by Aβ with CTZ” value in assay [2] is on record as “blocked”. For the same compound, in assay [3], the “[Ca2+]i increase, % of control” value is 50 ± 4 % of control. Moreover, the “effect on Aβ toxicity (Aβ-induced cell death)” value (shortened to “effect on Aβ toxicity”) in [4] is “greatly attenuated”. In addition, the “ROS levels with respect to control (100%, non-treated cells)” value (from here on “ROS levels … (100%, non-treated cells)”) in assay [5] (setting [10]) worked out at 106 ± 6.3%. In assay [6], the “mitochondrial potential with respect to control (100%, non-treated cells)” value is listed as 86 ± 3%. Also, the “effect on Aβ-induced [Ca2+]i response in organotypic slices” value in assay [7] (Aβ 20 µM in the pipette, MK801 50 µM (n=9), CNQX 30 µM (n=43), both (n=50)) is “greatly reduced”. In addition, the “PI uptake, fold as compared to control slices treated with antagonist alone” value is 0.73 ± .01 fold in assay [8] (entorhinal cortex) and 1.3 ± 0.4 fold in [8] (hippocampus).
Take `C[C@]12N[C@H](Cc3ccccc31)c1ccccc12` [MK801]: the “effect on Aβ-induced increase in [Ca2+]i” value in assay [3] is on record as “nearly abolished”. Also, the “effect on Aβ toxicity” value in assay [4] is listed as “greatly attenuated”. For the same compound, the “effect on Aβ-induced [Ca2+]mit rise” value in [9] is reported as “reduced”. In addition, the “ROS levels … (100%, non-treated cells)” value in [5] (setting [10]) is reported as 104 ± 3.4%. Further, in [6], the “mitochondrial potential with respect to control (100%, non-treated cells)” value was 85 ± 3%. Moreover, in [7], the “effect on Aβ-induced [Ca2+]i response in organotypic slices” value was “greatly reduced”. The “PI uptake, fold as compared to control slices treated with antagonist alone” value in assay [8] (entorhinal cortex) worked out at 1.2 ± 0.4 fold; in assay [8] (hippocampus), 0.9 ± 0.2 fold.
Regarding `O=C1NCCc2c(OCCCCN3CCCCC3)cccc21` [DPQ], in assay [4] (setting [11]), the “effect on Aβ toxicity” value is listed as “reduced”.
In the case of `N#CC(C#N)=NNc1ccc(OC(F)(F)F)cc1` [FCCP], in [9] (FCCP 25 µM, internal control), the “rhod-2 fluorescence (mitochondrial Ca2+)” value was “rapid and transitory reduction of rhod-2 fluorescence”.
Consider “Aβ oligomers: soluble Aβ1-42 oligomers prepared from Aβ1-42 (ABX) in Hams F-12 at 4°C for 24 h”, for which, in assay [9] (Aβ 5 µM), the “[Ca2+]mit levels with respect to the control assay (incubation buffer)” value is listed as “increased”. Besides, the “ROS levels … (100%, non-treated cells)” value in [5] (Aβ 5 µM alone) is recorded as 124 ± 7.8%. In addition, the “[Ca2+]i in CA1 neurons of organotypic slices” value in [7] (Aβ 20 µM in the pipette) is given as “increased”.
For `C=C(C)[C@H]1CN[C@H](C(=O)O)[C@H]1CC(=O)O` [Kainate], the “[Ca2+]i in CA1 neurons of organotypic slices” value in assay [7] (Aβ 20 µM in the pipette) is “increases”.
In the case of `N[C@H](CCCP(=O)(O)O)C(=O)O` [AP5, D-(-)-2-Amino-5-phosphonopentanoic acid], the “effect on Aβ oligomer-induced inward current” value in assay [1] is given as “reduced the peak of the currents”. Moreover, in assay [3] (Aβ 5 µM plus CTZ 100 µM, CNQX 30 µM (n=17), AP5 100 µM (n=17), both (n=18)), the “[Ca2+]i increase, % of control” value was 45 ± 2 % of control. Moreover, the “effect on Aβ-induced increase in [Ca2+]i” value in [3] is on record as “nearly abolished”. For the same compound, the “effect on Aβ toxicity” value in assay [4] (setting [11]) is listed as “greatly attenuated”. Also, the “effect on Aβ-induced [Ca2+]mit rise” value in assay [9] was “reduced”. Also, the “ROS levels … (100%, non-treated cells)” value in [5] (setting [10]) is given as 102 ± 11%. Also, in assay [6], the “mitochondrial potential with respect to control (100%, non-treated cells)” value stood at 90 ± 2%.
